Test results: patent US6524789B1, “Human neuronal nicotinic acetylcholine receptor compositions and methods employing same” (Merck & Co., Inc., priority 1995, dated 2003)

Tests used:
[1] = molecular target: T1, functional recombinant nAChR (Homo sapiens, UniProt Q15825); type: cell-based
T1 construct: A 1,743 bp EcoRI fragment, encoding a full-length nAChR α6 subunit, was isolated from KEα6.3; expressed in transfected cells; host or cells: HEK 293 cells, transiently or stably co-transfected
Description: Activation of the ligand-gated nAChR by agonists leads to an influx of cations, including Ca^++, through the receptor channel. Ca^++ entry into the cell through the channel can induce release of calcium contained in intracellular stores. Monovalent cation entry into the cell through the channel can also result in an increase in cytoplasmic Ca^++ levels through depolarization of the membrane and subsequent activation of voltage-dependent calcium channels. Therefore, methods of detecting transient increases in intracellular calcium concentration can be applied to the analysis of functional nicotinic nAChR expression. One method for measuring intracellular calcium levels relies on calcium-sensitive fluorescent indicators.
Calcium-sensitive indicators, such as fluo-3 (Catalog No. F01241, Molecular Probes, Inc., Eugene, Oreg.), are available as acetoxymethyl esters which are membrane permeable. […] Interaction of the free indicator with calcium results in increased fluorescence of the indicator; therefore, an increase in the intracellular Ca^2+ concentration of cells containing the indicator can be expressed directly as an increase in fluorescence.
HEK cells that are transiently or stably co-transfected with DNA encoding appropriate α and/or β subunits and α6 and β3 subunits are analyzed for expression of functional recombinant nAChR using the automated fluorescent indicator-based assay. […]

[2] = system: PC12; assay: 86Rb ion-flux assay, positive control cells PC12; type: cell-based; settings: Rattus norvegicus, PC-12, antagonist, 86Rb influx
Protocol: The ^86Rb ion-flux assay is conducted as follows:
1. The night before the experiment, cells are plated at 2×10^6 per well (i.e., 2 ml per well) in a 6-well polylysine-coated plate.
2. The culture medium is decanted and the plate washed with 2 ml of assay buffer (50 mM HEPES, 260 mM sucrose, 5.4 mM KCl, 1.8 mM CaCl2, 0.8 mM MgSO4, 5.5 mM glucose) at room temperature.
3. The assay buffer is decanted and 1 ml of assay buffer, containing 3 μCi/ml ^86Rb, with 5 mM ouabain and agoinist or antagonist in a concentration to effect a maximum response, is added.
4. The plate is incubated on ice at 1° C. for 4 min.
5. The buffer is decanted into a waste container and each well was washed with 3 ml of assay buffer, followed by two washes of 2 ml each.
6. The cells are lysed with 2×0.5 ml of 0.2% SDS per well and transferred to a scintillation vial containing 5 ml of scintillation fluid.
7. The radioactivity contained in each vial 5 is measured and the data calculated.

[3] = system: untransfected HEK cells; settings: fluo-3, 200 μM nicotine
Protocol: HEK cells that are transiently or stably co-transfected with DNA encoding appropriate α and/or β subunits and α6 and β3 subunits are analyzed for expression of functional recombinant nAChR using the automated fluorescent indicator-based assay. The assay procedure is as follows. Untransfected HEK cells and HEK cells co-transfected with DNA encoding the appropriate α and β subunits are plated in the wells of a 96-well microtiter dish and loaded with fluo-3 by incubation for 2 hours at 20° C. in a medium containing 20 μM fluo-3, 0.2% Pluronic F-127 in HBS (125 mM NaCl, 5 mM KCl, 1.8 mM CaCl2, 0.62 mM MgSO4, 6 mM glucose, 20 mM HEPES, pH 7.4). The cells are then washed with assay buffer (i.e., HBS). The antagonist d-tubocurarine is added to some of the wells at a final concentration of 10 μM.

T1 sequence (Q15825 31-494): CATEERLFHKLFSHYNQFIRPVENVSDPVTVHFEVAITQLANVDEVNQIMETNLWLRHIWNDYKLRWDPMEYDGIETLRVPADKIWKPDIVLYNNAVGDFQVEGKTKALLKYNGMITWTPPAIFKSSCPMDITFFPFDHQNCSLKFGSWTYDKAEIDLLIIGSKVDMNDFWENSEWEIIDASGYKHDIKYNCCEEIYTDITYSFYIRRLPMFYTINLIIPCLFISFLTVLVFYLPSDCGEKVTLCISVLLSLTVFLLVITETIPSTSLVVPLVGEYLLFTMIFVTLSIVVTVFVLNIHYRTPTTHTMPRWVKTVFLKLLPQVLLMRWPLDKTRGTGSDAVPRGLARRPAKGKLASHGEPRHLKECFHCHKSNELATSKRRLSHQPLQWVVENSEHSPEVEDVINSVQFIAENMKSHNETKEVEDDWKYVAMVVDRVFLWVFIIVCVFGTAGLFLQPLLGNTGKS
T1 sequence (Q05901 25-458 partner limits assumed): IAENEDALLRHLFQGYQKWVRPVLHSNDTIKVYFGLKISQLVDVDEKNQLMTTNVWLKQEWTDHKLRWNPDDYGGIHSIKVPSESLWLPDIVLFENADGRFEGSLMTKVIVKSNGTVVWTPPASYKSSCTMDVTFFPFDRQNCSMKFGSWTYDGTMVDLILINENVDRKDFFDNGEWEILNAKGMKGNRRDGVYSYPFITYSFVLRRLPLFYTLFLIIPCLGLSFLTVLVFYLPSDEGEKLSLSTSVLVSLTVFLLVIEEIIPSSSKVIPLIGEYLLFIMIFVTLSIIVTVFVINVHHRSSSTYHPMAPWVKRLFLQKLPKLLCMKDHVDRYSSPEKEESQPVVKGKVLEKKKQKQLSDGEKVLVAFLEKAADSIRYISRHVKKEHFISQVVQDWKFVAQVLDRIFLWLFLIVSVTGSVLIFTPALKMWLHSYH

SMILES: COc1cc2c3cc1Oc1cc(ccc1O)C[C@@H]1c4c(cc(OC)c(O)c4Oc4ccc(cc4)C[C@@H]3N(C)CC2)CC[N+]1(C)C [d-tubocurarine]
- nicotine-stimulated increase in fluorescence in cells exposed to antagonist ([1]; co-transfected HEK cells, 10 μM d-tubocurarine, 200 μM nicotine): not observed

SMILES: CN1[C@@H]2CC[C@H]1C[C@@H](OC(=O)C(CO)c1ccccc1)C2 (stereo partly shown) [atropine]
- EC50 [2]: 12.5 µM

SMILES: CN1CCCC1c1cccnc1 (stereo not shown) [nicotine]
- fluorescence after addition of nicotine [3]: does not change
- fluorescence after addition of nicotine [1]: increases dramatically
